# How the values were obtained:
# Prostaglandin synthetase = biological target: T1, Prostaglandin synthetase (Bos taurus, UniProt O62664); experiment: Prostaglandin synthetase (cyclooxygenase), purified beef seminal vesicle; assay type: biochemical; conditions: Table IX; commercial enzyme preparation; read-out: Beef Prostaglandin Cyclooxygenase IC50
# T1 construct: Prostaglandin synthetase purified beef seminal vesicle; from tissue
# T1 sequence (O62664 25-600): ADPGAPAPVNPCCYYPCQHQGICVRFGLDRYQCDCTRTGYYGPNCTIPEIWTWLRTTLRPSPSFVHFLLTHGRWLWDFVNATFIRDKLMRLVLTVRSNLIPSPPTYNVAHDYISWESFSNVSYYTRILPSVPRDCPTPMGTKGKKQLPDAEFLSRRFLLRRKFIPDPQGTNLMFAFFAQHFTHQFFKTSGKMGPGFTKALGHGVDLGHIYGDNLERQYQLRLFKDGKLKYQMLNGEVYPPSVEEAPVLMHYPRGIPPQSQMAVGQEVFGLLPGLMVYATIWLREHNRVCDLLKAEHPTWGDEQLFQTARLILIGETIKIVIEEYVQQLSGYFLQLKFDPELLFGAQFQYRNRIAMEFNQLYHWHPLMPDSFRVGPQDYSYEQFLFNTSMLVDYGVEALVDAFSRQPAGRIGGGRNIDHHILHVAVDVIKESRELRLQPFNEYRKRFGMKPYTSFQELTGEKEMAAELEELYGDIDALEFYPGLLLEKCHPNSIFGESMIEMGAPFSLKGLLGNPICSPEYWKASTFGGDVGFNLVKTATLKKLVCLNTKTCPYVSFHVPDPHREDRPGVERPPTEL
# From the text: (§1) Prostaglandin synthetase purified beef seminal vesicle ^3 H arachidonic acid (86.2 Ci/mmol), tlc separation.
# [1] = system: Prostaglandin cyclooxygenase; experiment: Human osteoporosis fibroblasts prostaglandin cyclooxygenase activity; assay type: cell-based
# Cathepsin = experiment: Human leukocyte cathepsin; assay type: cell-based; conditions: read-out: Cathepsin IC50; Table XII; human leukocytes, 60 min incubation
# From the text: 5. Human peripheral leukocytes, RPMI-1788
# (§2) 2. Acid Cathepsin D -azocasein-pH 5.0, hydrolytic azo-peptide produce 366 nm.
# [2] = system: Prostaglandin cyclooxygenase; experiment: Mouse macrophage prostaglandin cyclooxygenase activity; assay type: cell-based
# From the text: (§3) 3. Mouse macrophages J774A.1 BALB/c
# as §1
# Cathepsin D [3] = biological target: T2, Cathepsin D (Mus musculus, UniProt P18242); experiment: Mouse hepatic lysosomal cathepsin D activity; assay type: biochemical; conditions: mouse hepatic, 60 min incubation, read-out: Cathepsin D IC50
# T2 construct: azocasein assay pH 5.0
# T2 sequence (P18242 65-410): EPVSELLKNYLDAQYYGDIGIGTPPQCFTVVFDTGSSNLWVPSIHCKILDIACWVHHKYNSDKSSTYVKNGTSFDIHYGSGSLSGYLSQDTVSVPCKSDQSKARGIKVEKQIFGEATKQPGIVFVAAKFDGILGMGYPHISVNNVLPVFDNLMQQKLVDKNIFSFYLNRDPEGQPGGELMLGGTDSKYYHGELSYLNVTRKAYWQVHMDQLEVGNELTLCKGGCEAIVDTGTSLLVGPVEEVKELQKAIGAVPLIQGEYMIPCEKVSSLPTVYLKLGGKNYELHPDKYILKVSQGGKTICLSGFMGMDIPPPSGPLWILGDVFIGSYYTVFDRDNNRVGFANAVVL
# From the text: (§4) 1. Cf1 male mouse hepatic 10% homogenates in 0.25M sucrose+0.001MEDTA,pH 7.2.
# (§5) Lysosomal Enzymes - free and total [triton X-100].
# as §2
# Cathepsin azo casein activity -
# Trypsin [4] = experiment: Mouse macrophage trypsin (BAEE) activity; assay type: cell-based
# Aryl sulphatase [5] = experiment: Human osteoporosis fibroblasts aryl sulphatase activity; assay type: cell-based
# From the text: (§6) 3. Aryl sulphatase- p-nitrocatechol sulfate, pH
# (§7) 5. 8 p-nitro-catechol product 510 nm.
# Acid phosphatase [6] = experiment: Mouse macrophage acid phosphatase activity; assay type: cell-based
# Cathepsin D [7] = biological target: T3, Cathepsin D (Homo sapiens, UniProt P07339); experiment: Human osteoporosis fibroblasts cathepsin D (azo-casein) activity; assay type: cell-based; conditions: Table X; human osteoporosis fibroblasts, DMEM +10% FCS + P/S; read-out: Cathepsin D IC50
# T3 construct: azocasein assay pH 5.0
# T3 sequence (P07339 65-412): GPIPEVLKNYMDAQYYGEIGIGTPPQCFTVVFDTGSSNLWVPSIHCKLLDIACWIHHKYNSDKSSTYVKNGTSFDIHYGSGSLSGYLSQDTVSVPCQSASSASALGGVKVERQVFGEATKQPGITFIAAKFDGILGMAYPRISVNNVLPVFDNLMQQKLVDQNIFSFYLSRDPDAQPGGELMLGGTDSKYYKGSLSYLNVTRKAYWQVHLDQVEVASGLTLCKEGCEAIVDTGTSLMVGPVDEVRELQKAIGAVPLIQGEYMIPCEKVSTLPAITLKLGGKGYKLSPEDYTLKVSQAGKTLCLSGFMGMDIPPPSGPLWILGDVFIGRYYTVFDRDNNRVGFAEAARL
# From the text: Osteoporosis Human Fibroblast-CRL-1140, Be SA1
# Elastase [8] = experiment: Mouse macrophage elastase activity; assay type: cell-based
# 5'-lipoxygenase = biological target: T4, 5'-lipoxygenase (Mus musculus, UniProt P48999); experiment: Mouse hepatic 5'-lipoxygenase activity; assay type: biochemical; conditions: Table VI; mouse hepatic, 60 min incubation; read-out: 5'-lipoxygenase IC50
# T4 construct: Cf1 male mouse hepatic 10% homogenates; from tissue; host or cells: CF1 male mouse liver, 10% homogenate
# T4 sequence (P48999 1-674): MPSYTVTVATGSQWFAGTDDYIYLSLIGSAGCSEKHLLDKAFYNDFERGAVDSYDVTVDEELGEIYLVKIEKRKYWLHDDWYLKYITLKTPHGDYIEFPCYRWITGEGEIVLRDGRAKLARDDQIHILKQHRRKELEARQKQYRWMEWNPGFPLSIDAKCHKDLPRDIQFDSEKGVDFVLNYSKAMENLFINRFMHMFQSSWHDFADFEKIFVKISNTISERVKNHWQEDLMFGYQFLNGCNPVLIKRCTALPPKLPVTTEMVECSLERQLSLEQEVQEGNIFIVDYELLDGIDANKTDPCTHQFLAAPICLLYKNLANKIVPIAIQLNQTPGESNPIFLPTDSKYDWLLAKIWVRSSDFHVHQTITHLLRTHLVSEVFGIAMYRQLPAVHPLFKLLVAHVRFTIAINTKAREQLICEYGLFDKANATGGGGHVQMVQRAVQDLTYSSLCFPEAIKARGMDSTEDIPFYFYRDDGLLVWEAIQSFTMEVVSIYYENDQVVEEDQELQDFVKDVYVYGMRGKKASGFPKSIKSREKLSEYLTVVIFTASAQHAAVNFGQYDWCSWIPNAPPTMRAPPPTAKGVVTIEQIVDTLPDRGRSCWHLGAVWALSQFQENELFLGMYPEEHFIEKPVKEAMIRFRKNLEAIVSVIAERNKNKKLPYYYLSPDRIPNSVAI
# From the text: as §4
# 5'-lipoxygenase Mylari, B.L., et al, J. Med.
# Trypsin [9] = experiment: Human osteoporosis fibroblasts trypsin (BAEE) activity; assay type: cell-based
# From the text: (§8) 1. Trypsin- N-benzoyl-L-arginine ethyl ester pH 8.0, hydrolytic product 253 nm.
# [10] = biological target: T5, Porcine Pancreatic Elastase (Sus scrofa, UniProt P00772); experiment: Porcine pancreatic elastase activity in vitro; assay type: biochemical; conditions: Table IX; commercial enzyme preparation
# T5 construct: purchased; host or cells: porcine pancreas
# T5 sequence (P00772 27-266): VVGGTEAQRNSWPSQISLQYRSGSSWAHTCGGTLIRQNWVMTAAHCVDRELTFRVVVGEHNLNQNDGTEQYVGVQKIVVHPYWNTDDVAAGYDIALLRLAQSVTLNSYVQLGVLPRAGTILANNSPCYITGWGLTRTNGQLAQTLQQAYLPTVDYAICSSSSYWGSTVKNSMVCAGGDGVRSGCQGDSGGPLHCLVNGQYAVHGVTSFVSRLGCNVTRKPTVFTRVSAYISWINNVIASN
# From the text: (§9) 2. Elastase- N-succinyl-L-alanyl-L-alanine-p-nitroanilide, pH 8.0, p-nitro anilide 410 nm.
# Acid phosphatase [11] = experiment: Human osteoporosis fibroblasts acid phosphatase activity; assay type: cell-based
# From the text: (§10) 1. Acid phosphatase -beta glycerol-3-phosphate, pH 5.0, released IP 720 nm.
# Cf1 male mice [12] = experiment: Writhing reflex, 0.6% acetic acid; assay type: in vivo; parameters: response vs control in vivo: dose or concentration left out as unconfirmed; conditions: Mus musculus, ip
# Elastase [13] = experiment: Human osteoporosis fibroblasts elastase activity; assay type: cell-based
# From the text: as §9
# Hydroxyproline = experiment: Serum and urine hydroxyproline levels in vivo; conditions: Cf1 male mice, 8 mg/kg/day I.P. 14 days, N=6
# Phosphorus = experiment: Serum and urine inorganic phosphorus levels in vivo; conditions: Cf1 male mice, 8 mg/kg/day I.P. 14 days, N=6
# Calcium = experiment: Serum and urine calcium levels in vivo; conditions: Cf1 male mice, 8 mg/kg/day I.P. 14 days, N=6
# Sprague Dawley Rats = experiment: Anti-inflammatory activity in Sprague Dawley rats; assay type: in vivo; conditions: Table IV; 8 mg/kg I.P.
# Aryl sulphatase [14] = experiment: Mouse macrophage aryl sulphatase activity; assay type: cell-based; conditions: 60 min incubation, read-out: Aryl Sulphatase IC50
# Sprague Dawley male rats [15] = experiment: Chronic adjuvant arthritis screen, Mycobacterium butyricum; assay type: in vivo; conditions: Table XIV; unit not given
# Aryl sulphatase [16] = experiment: Mouse hepatic lysosomal aryl sulphatase activity; assay type: biochemical; conditions: Table XV, 60 min incubation
# From the text: as §4, §5, §6, §7
# Cf1 male mice [17] = experiment: Writhing reflex, 0.6% acetic acid; assay type: in vivo; conditions: Table XIV; unit inferred; unit assumed
# Protocol: Writhing reflex- Cf1 -male mice- 0.6% acetic acid I.P. drugs administered @20 mg/kg/ I.P. 20 min. later - the # of stretches/10 min.
# Hendershot, L.C., et al, J.
# Sprague Dawley male rats [18] = experiment: Anti-pleurisy screen, Evans blue + carrageenan; assay type: in vivo; conditions: Table XIV; unit not given
# Cf1 male mice [19] = experiment: Hot plate tail flick test; assay type: in vivo; conditions: Table XIV; unit not given
# Pg. cyclooxygenase = biological target: T6, Pg. cyclooxygenase (Sus scrofa, UniProt A0A287ANF9); experiment: Porcine seminal vesicles Pg. cyclooxygenase; assay type: biochemical; conditions: Table XVI; 60 min incubation
# T6 construct: Porcine Seminal; from tissue; the methods section prints beef seminal vesicle
# T6 sequence (A0A287ANF9 25-600): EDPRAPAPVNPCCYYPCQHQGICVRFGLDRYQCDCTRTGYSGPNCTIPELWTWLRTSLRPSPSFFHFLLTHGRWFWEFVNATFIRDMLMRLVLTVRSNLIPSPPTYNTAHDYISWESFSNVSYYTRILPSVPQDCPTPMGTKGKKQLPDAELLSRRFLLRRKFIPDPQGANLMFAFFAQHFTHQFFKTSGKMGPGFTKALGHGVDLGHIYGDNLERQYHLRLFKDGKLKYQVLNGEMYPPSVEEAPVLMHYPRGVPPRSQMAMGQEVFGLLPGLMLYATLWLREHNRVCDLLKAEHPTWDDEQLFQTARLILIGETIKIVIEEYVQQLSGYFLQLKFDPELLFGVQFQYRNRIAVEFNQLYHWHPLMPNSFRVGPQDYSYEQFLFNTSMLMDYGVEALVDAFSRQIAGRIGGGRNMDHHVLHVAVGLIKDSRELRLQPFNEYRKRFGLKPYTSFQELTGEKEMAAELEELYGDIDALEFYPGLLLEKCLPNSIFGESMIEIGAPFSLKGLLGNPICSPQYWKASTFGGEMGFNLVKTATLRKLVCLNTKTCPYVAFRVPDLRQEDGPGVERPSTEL
# Acid phosphatase [20] = experiment: Mouse hepatic lysosomal acid phosphatase activity; assay type: biochemical; conditions: Table XV; mouse hepatic, 60 min incubation
# From the text: as §4, §5, §10
# Acid phosphatase activity -
# Commercial Collagenase = experiment: Commercial collagenase (type not stated); assay type: biochemical; conditions: Table XVI; 60 min incubation
# From the text: 3. Collagenase I, Clostridium histolyticum, bone, skin, tendon, blood vessel, dentine, GI. substrate: rat collagen, N-[propionate-2-3-^3 H] propionylated measured as dpm released.
# 4. Collagenase II, Clostridium histolyticum, cartilage collagen.
# Cf1 male mice [21] = experiment: Anti-inflammatory screen, Winter's test, 2% carrageenan hind foot; assay type: in vivo; conditions: Table XIV; unit inferred; unit assumed
# Protocol: Anti-inflammatory Screen- Cf1 - male mice-Winter's Test 2% carrageenan S.C. plantar surface of hind foot, drugs administered @8 or 10 mg/kg I.P. 2X
# Winter, C.A., et al, Proc. Soc.
# Trypsin [22] = experiment: Mouse hepatic trypsin activity; assay type: biochemical; conditions: Table XVI; 60 min incubation; read-out: Mouse Hepatic Trypsin IC50
# From the text: as §4, §8
# Cathepsin D [23] = biological target: T2, Cathepsin D; experiment: Mouse macrophage cathepsin D activity; assay type: cell-based; conditions: Table XVII; mouse macrophage, 60 min incubation; read-out: Cathepsin D pH 5.0 IC50
# From the text: as §3, §2
smiles,measurement,setting,value
"[BH3-][NH+]1CCOCC1 [Compound 1, Morpholine-borane]",IC50,Prostaglandin synthetase,2.36 µM
same,IC50,"[1]; read-out: Prostaglandin Cyclooxygense IC50, Table XI, 60 min incubation",3.41 µM
same,IC50,Cathepsin,72.8 µM
same,IC50,"[2]; read-out: Prostaglandin Cyclooxygenase IC50; Table VIII; mouse macrophages, 60 min incubation",1.47 µM
same,IC50,Cathepsin D [3]; Table V,0.88 µM
same,IC50,"Trypsin [4]; read-out: Trypsin BAEE IC50; Table VIII; mouse macrophages, 60 min incubation",2.39 µM
same,IC50,Aryl sulphatase [5]; read-out: Aryl Sulphatase IC50; Table X; human osteoporosis fibroblasts,8.99 µM
same,IC50,"Acid phosphatase [6]; read-out: Acid Phosphatase IC50; Table VII; mouse macrophage cultured cells, 60 min incubation",3.18 µM
same,IC50,Cathepsin D [7],4.4 µM
same,IC50,"Elastase [8]; read-out: Elastase IC50; Table VIII; mouse macrophages, 60 min incubation",5.94 µM
same,IC50,5'-lipoxygenase,66.9 µM
same,IC50,"Trypsin [9]; read-out: Trypsin BAEE IC50; Table XI; human osteoporosis fibroblasts, 60 min incubation",7.88 µM
same,IC50,[10],14.9 µM
same,IC50,Acid phosphatase [11]; read-out: Acid Phosphatase IC50; Table X; human osteoporosis fibroblasts,10.3 µM
same,response vs control in vivo,Cf1 male mice [12]; read-out: Writhing Reflex Cf1 Mice,15.2%
same,IC50,"Elastase [13]; read-out: Elastase IC50; Table XI; human osteoporosis fibroblasts, 60 min incubation",1.84 µM
"CCCCCCCCCCCCCCCCCC[N+](C)(C)[BH2-]C(=O)O [Compound 6, N,N-Dimethyloctadecylamine-carboxyborane]",IC50,Prostaglandin synthetase,1.92 µM
same,Hydroxyproline serum,Hydroxyproline,76.4 % Control
same,Hydroxyproline urine,Hydroxyproline,60.6 % Control
same,IC50,[10],27.6 µM
same,Phosphorus serum,Phosphorus,86.2 % Control
same,Phosphorus urine,Phosphorus,65.4 % Control
same,Calcium serum,Calcium,135.4 % Control
same,Calcium urine,Calcium,64.4 % Control
same,response vs control in vivo at 20 mg/kg,Cf1 male mice [12]; Table IV,14.1%
"CCNC(=O)[BH2-][NH+](C)C [Compound 9, Dimethylamine-N-ethylcarbamoylborane]",Anti-Inflammatory Activity Sprague Dawley Rats,Sprague Dawley Rats,41 % Control
same,IC50,"[1]; Table XI, 60 min incubation, read-out: Prostaglandin Cyclooxygense IC50",8.05 µM
same,IC50,"[2]; Table VIII; mouse macrophages, 60 min incubation; read-out: Prostaglandin Cyclooxygenase IC50",5.19 µM
same,IC50,"Trypsin [4]; Table VIII; mouse macrophages, 60 min incubation; read-out: Trypsin BAEE IC50",2.03 µM
same,IC50,Aryl sulphatase [5]; Table X; human osteoporosis fibroblasts; read-out: Aryl Sulphatase IC50,7.63 µM
same,IC50,"Acid phosphatase [6]; Table VII; mouse macrophage cultured cells, 60 min incubation; read-out: Acid Phosphatase IC50",1.12 µM
same,IC50,Cathepsin D [7],1.93 µM
same,IC50,"Elastase [8]; Table VIII; mouse macrophages, 60 min incubation; read-out: Elastase IC50",3.29 µM
same,IC50,5'-lipoxygenase,43.5 µM
same,IC50,"Trypsin [9]; Table XI; human osteoporosis fibroblasts, 60 min incubation; read-out: Trypsin BAEE IC50",4.36 µM
same,IC50,"Aryl sulphatase [14]; Table VII, mouse macrophage cultured cells",9.27 µM
same,IC50,Acid phosphatase [11]; Table X; human osteoporosis fibroblasts; read-out: Acid Phosphatase IC50,8.6 µM
same,response vs control in vivo at 8 mg/kg,"Cf1 male mice [12]; Table IV, 8 mg/kg I.P.",26.9%
same,IC50,"Elastase [13]; Table XI; human osteoporosis fibroblasts, 60 min incubation; read-out: Elastase IC50",0.98 µM
CC#N.CO.C[N+](C)(C)[BH2-]C(=O)[O-].C[N+](C)(C)[BH2-]C(=O)[O-].C[N+](C)(C)[BH2-]C(=O)[O-].C[N+](C)(C)[BH2-]C(=O)[O-].C[N+](C)(C)[BH2-]C(=O)[O-].C[N+](C)(C)[BH2-]C(=O)[O-].O.O=[N+]([O-])[O-].[Cr+3].[Cr+3].[Cr+3].[O-2] [Compound 26],Anti-Arthritis Rats,Sprague Dawley male rats [15],78.0
same,IC50,Aryl sulphatase [16],7.73 µM
same,Writhing Reflex Mice,Cf1 male mice [17],85.4%
same,IC50,"[2]; Table XVIII; mouse macrophage, 60 min incubation; read-out: Prostaglandin Cyclooxygenase IC50",1.62 µM
same,IC50,Cathepsin D [3]; Table XV,5.47 µM
same,Anti-Pleurisy Rats,Sprague Dawley male rats [18],40.0
same,Tail Flick Mice,Cf1 male mice [19],184
same,IC50,"Trypsin [4]; Table XVIII; mouse macrophage, 60 min incubation; read-out: Trypsin BAEE IC50",2.1 µM
same,IC50,Pg. cyclooxygenase,2.14 µM
same,IC50,Acid phosphatase [20],6.99 µM
same,IC50,"Acid phosphatase [6]; Table XVII; mouse macrophage, 60 min incubation; read-out: Acid Phosphatase IC50",2.48 µM
same,IC50,"Elastase [8]; Table XVIII; mouse macrophage, 60 min incubation; read-out: Elastase IC50",5.09 µM
same,IC50,Commercial Collagenase,567 µM
same,Anti-Inflammation Cf1 Mice,Cf1 male mice [21],58.5%
same,IC50,"Aryl sulphatase [14]; Table XVII, mouse macrophage",1.2 µM
same,IC50,Trypsin [22],9.96 µM
same,IC50,Cathepsin D [23],2.49 µM

# From US5312816A, “Method of combatting osteoporosis in mammalian subjects, utilizing organic boron compounds” (priority 1993, dated 1994)
